Values of other authors as cited in US20100028426A1, “TIME-SPECIFIC DELAYED/PULSATILE RELEASE DOSAGE FORMS” (POLICHEM S.A., priority 2007, published 2010).

Key:
[1] = in vivo

CCN(C(C)=O)c1cccc(-c2ccnc3c(C#N)cnn23)c1 [Zaleplon]
time to sleep onset (TSO) (sleep disorders; in vivo): effective in shortening the time to sleep onset
total sleep time and number of awakening (sleep disorders; oral immediate release formulation taken at bed time): neither increases total sleep time, nor decreases the number of awakening
time to peak concentration (t max) [1]: approximately 1 hour
